# Test results published in patent publication US20220226508A1, “METHODS AND COMPOSITIONS FOR TREATING EPILEPSY” (THE REGENTS OF THE UNIVERSITY OF CALIFORNIA, priority 2019, published 2022).
# pKi: −log10 of the molar value. Entries after “also recorded” stand apart in the source; their conditions may differ. Where two headings read alike, the source gives them in different places.
# Experiments:
# human 5-HT2CR [1] = biological target: T1, human 5-HT2CR (Homo sapiens, UniProt P28335); assay: Radioligand binding assay (NIMH PDSP), 5-HT2CR
# T1 construct: expressed in transfected cells
# T1 sequence (P28335 33-458): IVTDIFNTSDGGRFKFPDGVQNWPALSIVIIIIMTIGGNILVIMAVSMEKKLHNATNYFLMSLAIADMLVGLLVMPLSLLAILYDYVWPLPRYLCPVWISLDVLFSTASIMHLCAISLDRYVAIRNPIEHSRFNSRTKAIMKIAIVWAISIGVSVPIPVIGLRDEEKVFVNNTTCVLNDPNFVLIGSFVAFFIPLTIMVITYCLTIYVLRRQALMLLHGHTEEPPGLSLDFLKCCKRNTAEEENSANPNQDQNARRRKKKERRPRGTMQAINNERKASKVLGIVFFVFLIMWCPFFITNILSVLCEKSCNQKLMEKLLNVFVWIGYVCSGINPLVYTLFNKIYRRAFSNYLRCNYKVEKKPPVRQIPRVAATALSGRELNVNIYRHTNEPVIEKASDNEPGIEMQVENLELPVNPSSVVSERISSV
# Experimental: (§1) Receptor Binding Assays. In vitro binding assay and Ki data were performed by the US National Institute of Mental Health Psychoactive Drug Screening Program (NIMH PDSP). Drugs were screened against recombinant, stably expressed human 5-HT2AR, 5-HT2BR, 5-HT2CR and H1. For specific binding assays please refer to detailed procedures at https://pdspdb.unc.edu/pdspWeb/ (Besnard, J. et al., Nature, 492, 215-220, 2012).
# scn1lab mutant zebrafish [2] = assay: Locomotion assay of high-velocity seizure-like swim behavior; format: in vivo, zebrafish (Danio rerio); conditions: for suppression of seizure-like swim behavior (change in mean swim velocity): initial library screen at 100 μM and 250 μM, 5 dpf larvae, threshold reduction ≥40%; for suppression of seizure-like swim behavior (change in mean velocity): independently resynthesized compounds retested at 10, 50, 100 and 250 μM
# Source text: Zebrafish maintenance. Zebrafish were raised under standard laboratory conditions in accordance with requirements outlined in the Guide for the Care and Use of Animals (ebrary Inc., 2011) and experiments were approved by the Institutional Animal Care and Use Committee (protocol #AN108659-03). Embryos were obtained by natural spawning of scn1lab (didy^s552) heterozygous animals that had been outcrossed to TL strain. Homozygous scn1lab mutants (n=2500) have dispersed melanosomes and appear visibly darker by 3 dpf compared to WT larvae.
# (§2) Seizure monitoring. At 5 dpf individual zebrafish larvae were placed into a single well of a clear flat-bottomed 96-well microplate containing embryo media. Larvae were selected randomly as sex determination is not possible at this stage of development. All drug screening experiments were conducted in an unbiased manner by investigators blinded to the test compounds and all files coded for post hoc analysis. Microplates were placed inside the DanioVision and acclimated for 20 min at room temperature. Locomotion plots were obtained for each well at a recording epoch of 10 min using EthoVision XT software (DanioVision, Noldus Information Technology). Seizure scoring was performed using the following three-stage scale established for pentylenetetrazole-induced seizures: Stage 0, no or very little swim activity; Stage I, increased, brief bouts of swim activity; Stage II, rapid “whirlpool-like” circling swim behavior; and Stage III, paroxysmal whole-body clonus-like convulsions, and a brief loss of posture. WT fish are typically scored at Stage 0 or I. Plots were analyzed for distance travelled (in millimeters) and mean velocity (in millimeters per second). After 90 mins of drug exposure larvae were examined for toxic side-effects. Compounds that decreased or stopped the larva heartbeat, or reduced or eliminated the escape response when touched, were considered toxic.
# Statistics. Data are presented as the mean±standard error of the mean (SEM), unless otherwise stated. For behavior analysis, the threshold for a change in mean swim velocity ≥40% (>1.5×SD of 250 control treated scn1lab) is considered significant. For comparison between more than two groups one-way ANOVA analysis was used. […] Differences considered statistically significant are indicated with asterisks (*P<0.05; **P<0.01).
# scn1lab mutant zebrafish [3] = assay: Toxicity in larvae after 90 min drug exposure (heartbeat, escape response); format: in vivo, zebrafish (Danio rerio)
# Experimental: as §2
# human H1 receptor = human H1 receptor (Homo sapiens, UniProt P35367); assay: Radioligand binding assay (NIMH PDSP), H1; parameters: expressed in transfected cells
# Experimental: as §1
# scn1lab mutant zebrafish [4] = assay: Local field potential (LFP) electrophysiology of electrographic seizure events; format: in vivo, zebrafish (Danio rerio); conditions: 10 min LFP recording, 5 dpf larvae
# Experimental: For electrophysiology studies, zebrafish larvae were anesthetized with cold and immobilized in 1.2% agarose; local field potential (LFP) recordings were obtained from forebrain or optic tectum structures using a single-electrode approach, as previously described (Baraban, S. C. et al., Neuroscience, 131, 759-768, 2005). Agarose-embedded LFP recording sessions of 10 min were obtained at 1 kHz. Epileptiform events were identified post hoc and defined as multi-spike or poly-spike upward or downward membrane deflections greater than 3× baseline noise level and 150-250 ms in duration (interictal-like) or greater than 5× baseline noise, multi-spike and >500 ms in duration (ictal-like); both events were counted using threshold detection settings in Clampfit (Molecular Devices; Sunnyvale, Calif.). During electrophysiology experiments larvae were continuously monitored for blood flow and heart rate using an Axiocam digital camera at video frame rate.
# Monitoring electrographic brain activity to confirm seizure suppression is an essential assay to eliminate false positives from behavioral testing (Griffin, A. et al., Frontiers in Pharmacology, 9, 2018). By placing a microelectrode into a visually identified brain region of an agar-immobilized zebrafish larval, stable local field potential (LFP) recordings can be monitored for several hours (Baraban, S. C. et al., Nat Commun, 4, 2410, 2013). At 5 dpf LFP recordings of scn1Lab zebrafish larvae show an average of 250 abnormal electrographic seizure events during a 10 min recording epoch.
# human 5-HT2BR [5] = biological target: T2, human 5-HT2BR (Homo sapiens, UniProt P41595); conditions: known drugs and commercial compounds; read-out: binding affinity (Ki) 5-HT2B / 5-HT2BR; cited from earlier work
# T2 construct: expressed in transfected cells
# human 5-HT2CR [6] = biological target: T1, human 5-HT2CR; conditions: known drugs and commercial compounds; read-out: binding affinity (Ki) 5-HT2C / 5-HT2CR; cited from earlier work
# human 5-HT2AR [7] = biological target: T3, human 5-HT2AR (Homo sapiens, UniProt P28223); assay: biochemical; format: binding
# T3 construct: expressed in transfected cells
# Experimental: as §1
# human 5-HT2BR [8] = biological target: T2, human 5-HT2BR; assay: biochemical; format: binding; conditions: for specificity / selectivity for 5-HT2BR over other 5-HT2R subtypes: radioligand binding
# Experimental: as §1
# human 5-HT2R = assay: Radioligand binding assays (NIMH PDSP), 5-HT2R subtypes together; conditions: 5-HT2AR, 5-HT2BR, 5-HT2CR
# Experimental: Receptor Binding Assays. In vitro binding assay and Ki data were performed by the US National Institute of Mental Health Psychoactive Drug Screening Program (NIMH PDSP). Drugs were screened against recombinant, stably expressed human 5-HT2AR, 5-HT2BR, 5-HT2CR and H1.
# human 5-HT2AR [9] = biological target: T3, human 5-HT2AR; conditions: known drugs and commercial compounds; read-out: binding affinity (Ki) 5-HT2A / 5-HT2AR; cited from earlier work
# [10] = Solubility in the screening medium; format: physicochemical; conditions: 250 μM
# Experimental: 10 mM compound stock solutions were made in DMSO and then diluted in embryo medium for assays.
# [11] = clemizole analogs, recombinant human receptor, read-out: binding affinity (Ki) 5-HT2CR
# [12] = clemizole analogs, recombinant human receptor, read-out: binding affinity (Ki) H1
# [13] = read-out: binding affinity (Ki) 5-HT2AR
# [14] = read-out: binding affinity (Ki) 5-HT2BR
# [15] = read-out: binding affinity (Ki) 5-HT2CR
# [16] = read-out: binding affinity (Ki) H1
# [17] = clemizole analogs, recombinant human receptor, read-out: binding affinity (Ki) 5-HT2BR
# [18] = 30 and 90 min exposure, threshold ≥40%
# Sequence of human H1 receptor (P35367 whole entry): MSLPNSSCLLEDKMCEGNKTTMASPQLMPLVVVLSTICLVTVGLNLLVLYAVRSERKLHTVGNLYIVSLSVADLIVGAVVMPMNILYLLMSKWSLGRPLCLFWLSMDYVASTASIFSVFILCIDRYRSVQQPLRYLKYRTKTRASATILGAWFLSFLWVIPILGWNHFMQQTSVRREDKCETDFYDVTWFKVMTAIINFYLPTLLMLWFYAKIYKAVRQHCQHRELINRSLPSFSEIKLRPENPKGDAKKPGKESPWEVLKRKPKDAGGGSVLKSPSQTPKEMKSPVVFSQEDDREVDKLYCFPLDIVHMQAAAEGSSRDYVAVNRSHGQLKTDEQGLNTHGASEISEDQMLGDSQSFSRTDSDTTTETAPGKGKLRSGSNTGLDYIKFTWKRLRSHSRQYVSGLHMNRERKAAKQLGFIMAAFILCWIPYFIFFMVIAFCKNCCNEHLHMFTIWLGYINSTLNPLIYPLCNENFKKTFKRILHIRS
# T3 sequence (P28223 whole entry): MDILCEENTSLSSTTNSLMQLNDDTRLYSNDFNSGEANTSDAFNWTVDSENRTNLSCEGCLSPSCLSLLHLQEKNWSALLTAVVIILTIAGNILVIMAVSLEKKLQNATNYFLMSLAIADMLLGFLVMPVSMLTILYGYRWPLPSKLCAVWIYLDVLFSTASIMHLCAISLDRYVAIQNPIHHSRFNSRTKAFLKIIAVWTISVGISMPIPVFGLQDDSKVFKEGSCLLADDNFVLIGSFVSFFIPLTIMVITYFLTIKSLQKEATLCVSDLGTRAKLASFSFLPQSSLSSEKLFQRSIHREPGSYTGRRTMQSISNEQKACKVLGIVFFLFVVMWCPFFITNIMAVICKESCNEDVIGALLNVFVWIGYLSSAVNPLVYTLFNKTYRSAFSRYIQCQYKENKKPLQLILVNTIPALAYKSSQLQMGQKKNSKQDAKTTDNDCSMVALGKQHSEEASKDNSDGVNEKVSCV
# T2 sequence (P41595 whole entry): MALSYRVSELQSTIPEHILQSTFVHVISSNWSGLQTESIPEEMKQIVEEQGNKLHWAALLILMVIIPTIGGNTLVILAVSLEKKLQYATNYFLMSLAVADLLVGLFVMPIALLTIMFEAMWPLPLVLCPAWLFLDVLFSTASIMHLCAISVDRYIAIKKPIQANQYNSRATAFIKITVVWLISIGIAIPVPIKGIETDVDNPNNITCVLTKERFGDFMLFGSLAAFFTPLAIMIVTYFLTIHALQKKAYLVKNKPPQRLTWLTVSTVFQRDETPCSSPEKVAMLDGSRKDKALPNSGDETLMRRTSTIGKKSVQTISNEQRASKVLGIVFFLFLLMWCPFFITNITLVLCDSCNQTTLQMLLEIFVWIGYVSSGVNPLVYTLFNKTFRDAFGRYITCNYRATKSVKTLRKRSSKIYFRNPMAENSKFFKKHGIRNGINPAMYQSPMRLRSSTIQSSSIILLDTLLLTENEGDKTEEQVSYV
structure (smiles),measurement,setting,value
"Clc1ccc(Cn2ccnc2CN2CCCC2)cc1 [Compound 9, 1-[(4-Chlorophenyl)methyl]-2-[(pyrrolidin-1-yl)methyl]-1H-imidazole]",pKi,human 5-HT2CR [1]; [11],6.35
same,suppression of seizure-like swim behavior (change in mean swim velocity),scn1lab mutant zebrafish [2],effective in suppressing
same,toxicity after 90-min exposure,scn1lab mutant zebrafish [3]; 250 μM,toxic
same,pKi,human H1 receptor; [12],7.54
"CC[C@@H](CO)NC(=O)[C@@H]1C=C2c3cccc4[nH]cc(c34)C[C@H]2N(C)C1 [methylergonovine, reference compound]",effect on seizure-like swim behavior (change in mean velocity),"scn1lab mutant zebrafish [2]; commercial 5-HT2BR/dopamine agonists, three concentrations, 30 and 90 min exposure, threshold ≥40%",suppressed convulsive swim behaviors in a concentration-dependent manner
same,frequency of electrographic seizure (epileptiform) events,scn1lab mutant zebrafish [4]; 250 μM,significant changes in the frequency of events; also recorded: significantly suppressed the frequency of electrographic seizure events
same,pKi,human 5-HT2BR [5],8.66
same,pKi,human 5-HT2CR [6],8.34
Clc1ccc(Cn2c(CN3CCOCC3)nc3ccccc32)cc1 [Compound 23],pKi,human 5-HT2AR [7]; [13],< 5.00
same,specificity / selectivity for 5-HT2BR over other 5-HT2R subtypes,human 5-HT2BR [8],selectivity for 5-HT2BR
same,pKi,human 5-HT2BR [8]; [14],6.29
same,pKi,human 5-HT2CR [1]; [15],< 5.00
same,toxicity after 90-min exposure,"scn1lab mutant zebrafish [3]; initial library screen, concentration not given",toxic
same,pKi,human H1 receptor; [16],7.47
"c1ccc2c(c1)nc(CN1CCCC1)n2CC1CCCCC1 [Compound 4, 1-(Cyclohexylmethyl)-2-[(pyrrolidin-1-yl)methyl]-1H-benzimidazole]",pKi,human 5-HT2AR [7],< 5.00
same,pKi,human 5-HT2BR [8]; [17],6.21
same,specificity / selectivity for 5-HT2BR over other 5-HT2R subtypes,human 5-HT2BR [8],specificity for 5-HT2BR over other 5-HT2R subtypes; also recorded: significant preference for 5-HT2BR
same,pKi,human 5-HT2CR [1],< 5.00
same,suppression of seizure-like swim behavior (change in mean velocity),scn1lab mutant zebrafish [2]; [18],reduced the high-velocity seizure-like swim behavior
same,suppression of seizure-like swim behavior (change in mean swim velocity),scn1lab mutant zebrafish [2],effective in suppressing
same,frequency of electrographic seizure (epileptiform) events,scn1lab mutant zebrafish [4]; 100 μM,significant changes in the frequency of events; also recorded: significant suppression of electrographic seizure activity
same,pKi,human H1 receptor; [12],6.82
"c1ccc2c(c1)nc(CN1CCCC1)n2CC1CCCC1 [Compound 20, 1-(Cyclopentylmethyl)-2-[(pyrrolidin-1-yl)methyl]-1H-benzimidazole]",pKi,human 5-HT2AR [7]; [13],< 5.00
same,pKi,human 5-HT2BR [8]; [17],6.11
same,specificity / selectivity for 5-HT2BR over other 5-HT2R subtypes,human 5-HT2BR [8],specificity for 5-HT2BR over other 5-HT2R subtypes; also recorded: significant preference for 5-HT2BR
same,pKi,human 5-HT2CR [1]; [15],< 5.00
same,suppression of seizure-like swim behavior (change in mean velocity),scn1lab mutant zebrafish [2]; [18],reduced the high-velocity seizure-like swim behavior
same,suppression of seizure-like swim behavior (change in mean swim velocity),scn1lab mutant zebrafish [2],effective in suppressing
same,frequency of electrographic seizure (epileptiform) events,scn1lab mutant zebrafish [4]; 100 μM,significant changes in the frequency of events; also recorded: significant suppression of electrographic seizure activity
same,pKi,human H1 receptor; [12],6.79
N#Cc1cccc(Cn2c(CN3CCCC3)nc3ccccc32)c1 [Compound 10],pKi,human 5-HT2AR [7]; [13],< 5.00
same,pKi,human 5-HT2BR [8]; [14],< 5.00
same,pKi,human 5-HT2CR [1]; [15],< 5.00
same,binding to any human 5-HT2R,human 5-HT2R,no significant binding
same,pKi,human H1 receptor; [16],6.45
c1cn(CC2CCCCC2)c(CN2CCCC2)n1 [Compound 21],pKi,human 5-HT2AR [7]; [13],< 5.00
same,pKi,human 5-HT2BR [8]; [14],< 5.00
same,pKi,human 5-HT2CR [1]; [15],< 5.00
same,binding to any human 5-HT2R,human 5-HT2R,no significant binding
same,pKi,human H1 receptor; [16],< 5.00
FC1(F)CCC(Cn2c(CN3CCCC3)nc3ccccc32)CC1 [Compound 17],pKi,human 5-HT2AR [7]; [13],< 5.00
same,pKi,human 5-HT2BR [8]; [14],< 5.00
same,pKi,human 5-HT2CR [1]; [15],< 5.00
same,binding to any human 5-HT2R,human 5-HT2R,no significant binding
same,pKi,human H1 receptor; [16],6.86
CC(C)C[C@H]1C(=O)N2CCC[C@H]2[C@]2(O)O[C@](NC(=O)[C@@H]3C=C4c5cccc6[nH]c(Br)c(c56)C[C@H]4N(C)C3)(C(C)C)C(=O)N12 [bromocriptine],toxicity after 90-min exposure,scn1lab mutant zebrafish [3]; concentrations higher than 10 μM,toxicity
c1cnc(N2CCN(Cc3ccc4c(c3)OCO4)CC2)nc1 [piribedil],toxicity after 90-min exposure,scn1lab mutant zebrafish [3]; 100 μM,toxicity
same,toxicity after 90-min exposure,scn1lab mutant zebrafish [3]; 250 μM,toxicity
same,pKi,human 5-HT2AR [9],< 5.00
same,pKi,human 5-HT2CR [6],< 5.00
"CC(C)(C)OC(=O)N1CCN(Cc2nc3ccccc3n2Cc2ccc(Cl)cc2)CC1 [Compound 25, tert-Butyl 4-({1-[(4-chlorophenyl)methyl]-1H-benzimidazol-2-yl}methyl)piperazine-1-carboxylate]",pKi,"human 5-HT2AR [7]; clemizole analogs, recombinant human receptor, read-out: binding affinity (Ki) 5-HT2AR",5.62
same,pKi,human 5-HT2BR [8]; [17],6.32
same,pKi,human 5-HT2CR [1]; [11],5.64
same,going into solution,[10],failed to go into solution
same,pKi,human H1 receptor; [12],7.12
c1ccc2c(c1)nc(CN1CCCC1)n2CC1CCOCC1 [Compound 15],pKi,human 5-HT2AR [7],< 5.00
same,pKi,human 5-HT2BR [8],< 5.00
same,pKi,human 5-HT2CR [1],< 5.00
same,binding to any human 5-HT2R,human 5-HT2R,no significant binding
same,pKi,human H1 receptor,6.06
